Measurements published in paper PMC5589637, “New perspectives of cobalt tris(bipyridine) system: anti-cancer effect and its collateral sensitivity towards multidrug-resistant (MDR) cancers” (Oncotarget, 2017).

What was measured:
[1] = test system: A2780 cisplatin-sensitive cancer cells; assay: MTT cytotoxicity, cisplatin-sensitive A2780; format: cell-based; details: 72 h
Source text: (§1) All cells were obtained from the American Type Culture Collection (Rockville, MD, USA) unless otherwise specified. Immortalized wild-type and Atg7-deficient mouse embryonic fibroblasts (MEFs) were kindly provided by Professor Masaaki Komatsu (Juntendo University, School of Medicine, Japan). Taxol-resistant types of MCF-7, HCT-8, A549 cancers cells and cisplatin-resistant SGC7901 cancer cells were purchased from KeyGEN BioTECH, China. Cisplatin-sensitive or –resistant A2780, OV2008 and C13 cancer cells were kindly provided by Prof. Benjamin Tsang (Department of Obstetrics and Gynecology and Department of Cellular and Molecular Medicine, University of Ottawa, Canada). HCT116 p53^+/+ and p53^−/− isogenic human colon cancer cells were kindly provided by Professor Bert Vogelstein (Ludwig Center at Johns Hopkins, Howard Hughes Medical Institute, USA). All media were supplemented with 10% fetal bovine serum and antibiotics penicillin (50 U/ml) and streptomycin (50 μg/ml; Invitrogen, Paisley, Scotland, UK). All cell cultures were incubated at 37°C in a 5% humidified CO2 incubator.
(§2) All tested compounds were dissolved in DMSO at a final concentration of 50 mmol/L and stored at −20°C before use. Cytotoxicity was assessed by using the 3-(4,5-dimethylthiazol-2-yl)-2, 5-diphenyltetrazolium bromide (MTT) (5.0 mg/ml) assay as previously described. Briefly, 4×10^3 cells per well were seeded in 96-well plates before drug treatments. After overnight culture, the cells were then exposed to different concentrations of selected compounds ([…]) for 72 hours. Cells without drug treatment were used as control. Subsequently, MTT (10 μL) solution was added to each well and incubated at 37°C for 4 hours followed by the addition of 100 μL solubilization buffer (10%SDS in 0.01 mol/L HCl) and overnight incubation. A570 nm was then determined in each well on the next day. The percentage of cell viability was calculated using the following formula: Cell viability (%) = Atreated/Acontrol × 100. Data were obtained from three independent experiments.

[2] = test system: LLC-1 Lewis lung cancer xenograft; assay: LLC-1 xenograft tumor model; format: in vivo; details: LLC-1 bearing C57BL/6 mice, 10 days
Method: The mice were maintained under specific pathogen-free condition in a 12-h light-dark cycle. 8-week-old C57BL/6 mice (female body weight: 22 ± 4 g and male body weight 25 ± 4g) were purchased from The Chinese University of Hong Kong. The animals were housed in a 12 hours light/dark cycles and temperature-controlled room and given ad libitum access to food and water. All of the experiments were carried out in accordance to the “Institutional Animal Care and User Committee guidelines” of the Macau University of Science and Technology. C57BL/6 were randomly grouped (10 mice per group) and intraperitoneal injected with 40 mg/kg or 80 mg/kg of cobalt complex 2 or 40 mg/kg or 80 mg/kg of water-soluble form of cobalt complex 2. Xenograft mouse model was constructed as previously described. LLC-1 Lewis lung cancer cells (1 × 10^6 cells) were subcutaneously injected in the right dorsal region of the mice. After tumors grew to about 100 mm^3, the mice were randomly divided into 3 groups: 1) the control group, 2) 40 or 80 mg/kg cobalt complex 2 group, and 3) 40 mg/kg cobalt complex 2W (water soluble form). […] The body weight of each mouse was recorded with the tumor volume determined by Vernier caliper using the formula of L × W^2 × 0.52, where Lis the longest diameter of tumor and W is the shortest diameter of tumor. […]

P-gp ATPase = P-gp ATPase (Homo sapiens, UniProt P08183); details: 0–2 μM, verapamil (200 μM) stimulated, ATP, 1 h at 37°C
Chain of P-gp ATPase (P08183 whole entry): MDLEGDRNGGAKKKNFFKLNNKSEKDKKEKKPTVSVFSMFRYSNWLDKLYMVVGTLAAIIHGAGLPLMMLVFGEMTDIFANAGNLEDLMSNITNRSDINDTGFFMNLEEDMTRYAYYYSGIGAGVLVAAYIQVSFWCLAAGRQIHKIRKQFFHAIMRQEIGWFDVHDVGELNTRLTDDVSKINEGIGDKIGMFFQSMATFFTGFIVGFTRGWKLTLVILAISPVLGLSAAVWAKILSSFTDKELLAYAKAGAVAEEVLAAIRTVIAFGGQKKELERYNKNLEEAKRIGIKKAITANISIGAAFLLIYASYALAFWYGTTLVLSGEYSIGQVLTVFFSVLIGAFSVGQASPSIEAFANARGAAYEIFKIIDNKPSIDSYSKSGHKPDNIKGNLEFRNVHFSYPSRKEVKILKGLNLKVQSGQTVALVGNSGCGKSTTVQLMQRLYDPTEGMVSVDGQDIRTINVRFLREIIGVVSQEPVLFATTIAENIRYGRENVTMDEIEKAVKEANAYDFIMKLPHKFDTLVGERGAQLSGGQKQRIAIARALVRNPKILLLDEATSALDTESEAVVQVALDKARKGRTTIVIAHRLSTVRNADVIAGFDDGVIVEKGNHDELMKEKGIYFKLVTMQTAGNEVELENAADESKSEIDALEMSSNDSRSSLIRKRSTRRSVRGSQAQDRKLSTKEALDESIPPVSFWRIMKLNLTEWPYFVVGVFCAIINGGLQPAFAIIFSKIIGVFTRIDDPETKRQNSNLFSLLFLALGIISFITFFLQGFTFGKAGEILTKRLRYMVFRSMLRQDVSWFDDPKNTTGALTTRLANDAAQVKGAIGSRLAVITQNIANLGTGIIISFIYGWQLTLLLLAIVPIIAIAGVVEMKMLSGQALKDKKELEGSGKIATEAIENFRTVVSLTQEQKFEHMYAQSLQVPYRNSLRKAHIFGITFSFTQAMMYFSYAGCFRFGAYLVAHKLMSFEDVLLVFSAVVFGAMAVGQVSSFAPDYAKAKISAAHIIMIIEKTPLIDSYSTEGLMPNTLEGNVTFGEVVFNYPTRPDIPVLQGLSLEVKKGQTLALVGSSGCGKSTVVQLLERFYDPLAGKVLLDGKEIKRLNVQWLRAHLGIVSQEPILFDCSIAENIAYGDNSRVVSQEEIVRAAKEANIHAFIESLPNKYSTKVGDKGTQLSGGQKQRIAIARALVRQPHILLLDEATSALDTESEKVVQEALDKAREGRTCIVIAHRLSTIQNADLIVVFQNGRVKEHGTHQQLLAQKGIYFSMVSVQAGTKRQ
Method: The luminescence of the sample reflects the ATP level in the sample, which is negatively correlated with the activity of P-gp ATPase and was recorded using the SpectraMax Paradigm Multi-Mode Microplate Reader (Molecular Devices). DMSO-treated activities are expressed as the percentage of basal activity.

HeLa cancer cells [3] = assay: Western blot of autophagy markers; format: cell-based
Method: (§3) Western blot analysis was carried out following standard methods. Cells were lysed with RIPA lysis buffer with protease and phosphatase inhibitor cocktails. Protein concentrations were determined using the Bio-Rad protein assay (Bio-Rad Laboratories, Inc., Hercules, CA, USA). After electrophoresis, the proteins from SDS/PAGE were electro-transferred to a Hybond enhanced chemiluminescence nitrocellulose membrane (Amersham Biosciences, NJ, USA), which was then blocked with 5% dried milk for 1 hour. After washing, the blot was incubated with the indicated primary antibodies overnight at 4°C. Detection was performed using appropriated HRP-conjugated secondary antibodies for 1 hour at RT followed by chemiluminescence (Invitrogen).

H1299 cell = assay: Western blot of cell invasion markers MMP-9 and ICAM-1; format: cell-based, human; details: 0.5 μM
Method: as §3

[4] = test system: MCF-7 taxol-resistant cancer cells; assay: MTT cytotoxicity, taxol-resistant MCF-7; format: cell-based
Source text: as §1, §2

HeLa cancer cells [5] = assay: Western blot of S phase cell cycle markers; format: cell-based; details: 24 h, 10 and 15 μM
Method: as §3

[6] = test system: SGC-7901 cisplatin-resistant cancer cells; assay: MTT cytotoxicity, cisplatin-resistant SGC-7901; format: cell-based
Source text: as §1, §2

SMILES: Cc1ccnc(-c2cc(C)ccn2)c1.Cc1ccnc(-c2cc(C)ccn2)c1.Cc1ccnc(-c2cc(C)ccn2)c1.F[P-](F)(F)(F)(F)F.F[P-](F)(F)(F)(F)F.F[P-](F)(F)(F)(F)F.[Co+3] [complex 2, [Co^III(4,4’-Me2-bpy)3](PF6)3]
- IC50 [1]: 12.3 µM
- reduction in tumor volume ([2]; IP 40 mg/kg/day or 80 mg/kg/day, P < 0.05): up to 50%
- body weight ([2]; IP daily): no significant reduction in body weight
- P-gp ATPase activity (change in luminescence) (P-gp ATPase): dose-dependently inhibited the ATPase activity of P-gp
- protein expression of p62 and P-p70S6K (HeLa cancer cells [3]; 10μM and 15μM): prominently reduced
- LC3-II protein conversion (HeLa cancer cells [3]; 24 h): dose-dependently increased the LC3-II protein conversion
- expression of beclin-1 protein (HeLa cancer cells [3]; 24 h, vs untreated control): upregulated
- expression of MMP-9 and ICAM-1 (H1299 cell): significantly downregulated
- Resistant Factor, MCF-7 ([4]; IC50 of taxol-resistant cells over IC50 of taxol-sensitive cells, MCF-7): 0.68
- IC50 ([4]; MCF-7 taxol-resistant, MTT, 72 h): 2.71 µM
- protein level of cyclin A and E2F (HeLa cancer cells [5]): significant accumulation
- protein level of cyclin D and E, cdk4, and cdk2 (HeLa cancer cells [5]): decreased
- IC50 ([6]; SGC-7901 cisplatin-resistant, MTT, 72 h): 12.6 µM
- Resistant Factor, SGC-7901 ([6]; cisplatin-resistant over cisplatin-sensitive IC50, SGC-7901): 1.14
